Results reported in ChEMBL document CHEMBL4330116, “Harzianoic acids A and B, new natural scaffolds with inhibitory effects against hepatitis C virus” (Bioorg Med Chem, 2019).
Activity calls are given as the source filed them. No cut-off for these calls is given here.

System: Vesicular stomatitis virus
Experiment: Antiviral activity against VSV pseudoparticles infected in human Huh7.5 cells infected with VSV pseudoparticles expressed in 293T cells with plasmid encoding vesicular stomatitis G protein, envelope and Vpr deficient HIV vector carrying luciferase reporter gene inserted into Nef position assessed as inhibition of pseudoparticle entry at 6.25 to 100 uM after 72 hrs by luciferase reporter gene assay
Assay type: functional, organism-based

Row | SMILES | inhibition
1 | CC(=O)[C@@H]1C[C@H](C(=O)O)[C@@]1(C)CC/C=C(\C)C(=O)O | inactive
2 | C/C(=C\CC[C@]1(C)[C@@H](C(=O)O)C[C@H]1[C@](C)(O)C(=O)O)C(=O)O | inactive
